Measured values published in patent US5770573A, “CS-1 peptidomimetics, compositions and methods of using the same” (Cytel Corporation, priority 1995, dated 1998).
Read-outs that look alike come from different tables or passages of the source. Square brackets hold non-standard residues; d marks the D form. Peptide text beside a SMILES is read from it. * marks the point of attachment. Biotin = O=C1N[C@H]2[C@H](CS[C@H]2CCCCC(=O)*)N1; NHOctadecyl = CCCCCCCCCCCCCCCCCCN*; Cha = N[C@@H](CC1CCCCC1)C(=O)O; Tle = CC(C)(C)[C@H](N)C(=O)O; NMeV = CN[C@H](C(=O)O)C(C)C; Morpholide = C1CN(*)CCO1; Octanoyl = CCCCCCCC(=O)*; Pyrrolidide = C1CCN(*)C1; Cbz = O=C(OCc1ccccc1)*; PhAc = O=C(Cc1ccccc1)*; Ahx = NCCCCCC(=O)O

What was measured:
VLA-4 = VLA-4 (Homo sapiens, UniProt P05556+P13612); experiment: In vitro binding inhibition of 51Cr-labeled Jurkat cells to solid phase-bound CS-1 compound (SEQ ID NO:1); assay type: cell-based; set-up: inflammatory cells that contain the VLA-4 receptor [Jurkat cells; host or cells: Jurkat (human T lymphoblastic line)
Procedure, shortened: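 51Cr-labeled human Jurkat cells were preincubated with compound 30 min at about 22° C, then allowed to bind to wells coated with CS-1 peptide or CS-1-OVA for 30 min at 37° C. After washing, bound cells were lysed with SDS and counted. IC50 is the concentration halving binding, normalized to SEQ ID NO: 3.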

[1] = system: delayed-type hypersensitivity murine model; experiment: Adoptive transfer delayed type hypersensitivity in mice (oxazolone); assay type: in vivo, mouse; details: expanded study; versus vehicle alone; 6 mg/kg/day s.c. pump, 24 hours
Procedure: An adoptive transfer delayed-type hypersensitivity murine model has been developed using splenic T cells primed to oxazolone. This model is described in Elices et al., Clin. Exp. Rheum., 11 (Suppl. 8):577-580 (1993), whose procedures were followed here.
Thus, BALB/c mice were shaved on the belly and painted (50 μl on the belly and 5 μl on each paw) with three percent oxazolone in acetone/olive oil (4:1) at days zero and 1. At day 5, the mice were sacrificed, their spleens removed, and splenic T cells were obtained via nylon wool columns.
Normal saline or saline containing 25×10^6 /animal of the oxazolone-immune T cells were separately injected into naive mice. The mice were then challenged by painting 10 μl of 2 percent oxazolone onto one ear each. All procedures were carried out under sterile conditions and in endotoxin-free buffers.
Prior to challenge or saline injection, the mice were implanted with pumps that subcutaneously administered normal saline, normal saline containing the compound, Compound ID No. 896.52, N-phenylacetyl-Leu-Asp-Phe-D-Pro-NH2, or normal saline containing a compound with a scrambled sequence continually at 6 mg/kg/day for a 24-hour time period. The swelling diameter at the site of challenge or saline injection was measured with a microcaliper 24 hours thereafter.
An expanded study was carried out as described above except that a scrambled compound control was not used as a control for further inhibitor compounds of Table 1 with larger groups of mice. Statistical analyses were carried out versus injection of vehicle alone.

asthmatic rabbits = experiment: Treatment of asthmatic rabbits (house dust mite antigen challenge); assay type: in vivo, rabbit
Procedure: Six New Zealand white rabbits were immunized with house dust mite antigen from birth through four months of age. Upon immunization, three rabbits received a single nebulizer administration of the inhibitor compound, Compound ID No. 1051.01, N-phenylacetyl-Leu-Asp-Phe-morpholinamide in aqueous 50 percent ethanol as diluent in an amount of 100 mg/kg, and the other three received diluent alone. All of the rabbits were challenged with house dust mite antigen about 15-30 minutes after administration of the compound, with those animals not receiving compound serving as controls.
Once immunized and challenged, the inflammatory state subsides to a basal level within about three weeks. The three animals used as controls were thereafter used as subjects for receipt of an inhibitor compound, and the three rabbits that initially received the compound can serve as controls.
Such a crossover study was done here. Thus, the three initial control rabbits were treated with the above inhibitor compound in the above diluent at a time more than three weeks after the above study, and the three previous recipients of the compound were administered the diluent alone. All six were than challenged again.
Initial pulmonary function, measured by dynamic compliance (Cdyn) and lung resistance (RL) , and bronchoalveolar lavage (BAL) to obtain an effector cell count, here eosinophils, were conducted prior to administration of the compound or diluent for both portions of this crossover study. Similar assays were then taken one-half hourly after challenge for six hours (early phase allergic reaction) and at 24 hours after challenge (late stage allergic reaction) for both portions of this study.
These studies were conducted as described by W. J. Metzger in CRC Handbook of Late Phase Reactions, W. Dorsch, ed., Chapter 35, CRC Press, Boca Raton, Fla. (1990) pages 347-362.
The results of this study for the pulmonary function parameters are shown in FIG. 4A and FIG. 4B, in which data for the challenged, inhibitor compound-treated animals are shown as open circles and data for the challenged, untreated, control animals are shown in blackened circles.

[2] = binding inhibition potency relative to standard compound of SEQ ID NO:3 = 1 (normalized IC50), about one-tenth or less assigned zero
[3] = 100 mg/kg nebulizer, late (24 hours)

Chain of VLA-4 (P13612 34-1032): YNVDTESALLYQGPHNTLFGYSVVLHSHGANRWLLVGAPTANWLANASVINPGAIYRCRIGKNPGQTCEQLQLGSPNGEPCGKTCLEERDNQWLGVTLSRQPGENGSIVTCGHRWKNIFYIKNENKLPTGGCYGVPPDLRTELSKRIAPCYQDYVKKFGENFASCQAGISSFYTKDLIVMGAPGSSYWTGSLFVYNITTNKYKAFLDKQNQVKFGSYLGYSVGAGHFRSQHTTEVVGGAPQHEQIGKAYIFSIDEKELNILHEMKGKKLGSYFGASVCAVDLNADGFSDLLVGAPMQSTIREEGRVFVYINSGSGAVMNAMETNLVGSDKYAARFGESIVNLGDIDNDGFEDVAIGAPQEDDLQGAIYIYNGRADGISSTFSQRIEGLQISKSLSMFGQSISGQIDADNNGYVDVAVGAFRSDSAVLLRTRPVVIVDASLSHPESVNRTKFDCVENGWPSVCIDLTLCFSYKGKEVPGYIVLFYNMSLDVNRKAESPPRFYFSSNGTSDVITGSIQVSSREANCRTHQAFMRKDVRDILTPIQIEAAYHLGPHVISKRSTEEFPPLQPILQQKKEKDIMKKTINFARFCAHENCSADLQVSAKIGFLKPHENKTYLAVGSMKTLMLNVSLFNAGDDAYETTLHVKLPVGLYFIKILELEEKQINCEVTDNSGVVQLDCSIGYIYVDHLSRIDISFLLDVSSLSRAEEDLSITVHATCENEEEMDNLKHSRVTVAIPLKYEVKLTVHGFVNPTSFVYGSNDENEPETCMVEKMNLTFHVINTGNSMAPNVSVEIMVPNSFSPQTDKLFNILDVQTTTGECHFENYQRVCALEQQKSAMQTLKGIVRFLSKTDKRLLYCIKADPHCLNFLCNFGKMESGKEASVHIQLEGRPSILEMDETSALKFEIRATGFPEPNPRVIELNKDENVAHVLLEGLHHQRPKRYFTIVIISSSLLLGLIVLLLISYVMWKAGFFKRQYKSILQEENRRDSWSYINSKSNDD
Chain of VLA-4 (P05556 21-798): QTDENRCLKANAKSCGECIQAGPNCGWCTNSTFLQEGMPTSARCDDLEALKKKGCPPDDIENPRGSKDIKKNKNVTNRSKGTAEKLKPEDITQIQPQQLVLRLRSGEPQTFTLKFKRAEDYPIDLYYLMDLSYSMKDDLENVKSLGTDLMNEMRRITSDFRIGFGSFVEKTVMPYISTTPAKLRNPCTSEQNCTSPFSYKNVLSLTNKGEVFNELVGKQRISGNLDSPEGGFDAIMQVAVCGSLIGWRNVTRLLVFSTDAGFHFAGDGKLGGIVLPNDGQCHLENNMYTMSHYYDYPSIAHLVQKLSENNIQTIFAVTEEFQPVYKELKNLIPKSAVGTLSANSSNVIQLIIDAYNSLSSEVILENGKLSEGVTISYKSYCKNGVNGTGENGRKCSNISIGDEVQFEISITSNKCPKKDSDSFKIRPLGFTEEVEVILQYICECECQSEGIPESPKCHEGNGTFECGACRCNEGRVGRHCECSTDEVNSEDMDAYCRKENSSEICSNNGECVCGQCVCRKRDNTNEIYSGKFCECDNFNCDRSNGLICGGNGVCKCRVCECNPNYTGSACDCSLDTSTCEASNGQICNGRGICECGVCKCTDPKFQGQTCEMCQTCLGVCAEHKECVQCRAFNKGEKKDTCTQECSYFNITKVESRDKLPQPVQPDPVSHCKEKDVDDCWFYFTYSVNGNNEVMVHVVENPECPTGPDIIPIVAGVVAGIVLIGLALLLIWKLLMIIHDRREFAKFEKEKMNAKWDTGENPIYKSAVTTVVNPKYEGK

CC(C)C[C@H](NC(=O)Cc1ccccc1)C(=O)N[C@@H](CC(=O)O)C(=O)N[C@@H](Cc1ccccc1)C(=O)N1CCC(O)CC1 [1070.02]
Relative Potency (VLA-4; [2]): 604 | Percent Inhibition of post-challenge swelling [1]: 29%

CC(C)C[C@H](NC(=O)Cc1ccccc1)C(=O)N[C@@H](CC(=O)O)C(=O)N[C@@H](Cc1ccccc1)C(=O)N1CCOCC1 [1051.01] (PhAc-Leu-Asp-Phe-Morpholide)
% Reduction, RL, Early phase (asthmatic rabbits; 100 mg/kg nebulizer, early (2-4 hours)): 80.1% | % Reduction, Cdyn, Early phase (asthmatic rabbits; 100 mg/kg nebulizer, early (2-4 hours), versus challenged controls): 94.4% | % Reduction, Cdyn, Late phase (asthmatic rabbits; [3]): 86.6% | % Reduction, RL, Late phase (asthmatic rabbits; [3]): 82.6% | reduction in eosinophils (BAL count) (asthmatic rabbits; after 24 hours, versus untreated, challenged animals): 88.1% | dynamic compliance Cdyn over six hours (FIG. 4A) (asthmatic rabbits; six hours after challenge): stayed at about the initial value | lung resistance RL over six hours (FIG. 4B) (asthmatic rabbits; six hours after challenge): remained between the initial value and about 200% of that value | Relative Potency (VLA-4; [2]): 709

CC(C)C[C@H](NC(=O)Cc1ccccc1)C(=O)N[C@@H](CC(=O)O)C(=O)N[C@@H](Cc1ccccc1)C(=O)N1CCN(CC(=O)O)CC1 [1111.06]
Relative Potency (VLA-4; [2]): 2600 | Percent Inhibition of post-challenge swelling [1]: 30%

NC(=O)[C@H]1CCCN1C(=O)[C@H](Cc1ccccc1)NC(=O)[C@H](CC(=O)O)NC(=O)[C@H](CC1CCCCC1)NC(=O)[C@@H](N)Cc1ccccc1 [896.30] (H-F[Cha]DF[dP]-NH2)
Relative Potency (VLA-4): 2.69

CC(C)C[C@@H](C(=O)N[C@@H](CC(=O)O)C(=O)N[C@@H](Cc1ccccc1)C(=O)N1CCCCC1)N1C(=O)N[C@H](c2ccccc2)C1=O [1047.01]
Relative Potency (VLA-4): 34.4

CC(C)C[C@@H](C(=O)N[C@@H](CC(=O)O)C(=O)N[C@@H](Cc1ccccc1)C(=O)N1CCCCC1)N1C(=O)N[C@@H](Cc2ccccc2)C1=O [1047.06]
Relative Potency (VLA-4): 6.26

NC(=O)[C@H]1CCCN1C(=O)[C@H](Cc1ccccc1)NC(=O)[C@H](CC(=O)O)NC(=O)CCCCC1CCCCC1 [1056.08]
Relative Potency (VLA-4): 0

CC(C)C[C@H](NC(=O)[C@H](Cc1ccccc1)NC(=O)CCCCCNC(=O)CCCC[C@@H]1SC[C@@H]2NC(=O)N[C@@H]21)C(=O)N[C@@H](CC(=O)O)C(=O)N[C@@H](Cc1ccccc1)C(=O)N1CCC[C@@H]1C(N)=O [951.13] ({Biotin-Ahx}-FLDF[dP]-NH2)
Relative Potency (prodrug compound) (VLA-4): 74.5

CC[C@H](C)[C@H](N)C(=O)N[C@@H](CC(C)C)C(=O)N[C@@H](CC(=O)O)C(=O)N(C)[C@H](C(=O)N1CCC[C@H]1C(N)=O)C(C)C [926.18] (H-ILD[NMeV]P-NH2)
Relative Potency (VLA-4): 0

CC(C)C[C@H](NC(=O)Cc1ccccc1)C(=O)N[C@@H](CC(=O)O)C(=O)NC1Cc2ccccc2NC1=O (some centres unmarked) [997.08]
Relative Potency (VLA-4; [2]): 23.5

CC(C)C[C@H](NC(=O)Cc1ccccc1)C(=O)N[C@@H](CC(=O)O)C(=O)N[C@@H](Cc1c[nH]c2ccccc12)C(=O)N1CCC[C@@H]1C(N)=O [896.60] (PhAc-LDW[dP]-NH2)
Relative Potency (VLA-4; [2]): 131

CC(=O)[C@H]1C[C@@H](CC(=O)N[C@@H](CC(=O)O)C(=O)N[C@@H](Cc2ccccc2)C(=O)N2CCC[C@@H]2C(N)=O)C1(C)C [1056.03]
Relative Potency (VLA-4): 0

CC(C)C[C@H](NC(=O)Cc1ccccc1)C(=O)N[C@@H](CC(=O)O)C(=O)N[C@H](C(=O)N1CCC[C@@H]1C(N)=O)C(C)(C)C [896.56] (PhAc-LD[Tle][dP]-NH2)
Relative Potency (VLA-4; [2]): 1.72

CC(=O)N[C@@H](Cc1ccccc1)C(=O)N[C@@H](CC(C)C)C(=O)N[C@@H](CC(=O)O)C(=O)N[C@@H](Cc1ccccc1)C(=O)N1CCC[C@@H]1C(N)=O [951.42] (Ac-FLDF[dP]-NH2)
Relative Potency (VLA-4): 35.4

CC(C)C[C@H](NC(=O)Cc1ccccc1)C(=O)N[C@@H](CC(=O)O)C(=O)N[C@@H](Cc1ccccc1)C(=O)N1C[C@@H](O)[C@@H](O)C1 [1070.01]
Relative Potency (VLA-4; [2]): 194

CCCCCCCCCCCCCCCCCCNC(=O)CCCCCNC(=O)[C@@H]1CCCN1C(=O)[C@H](Cc1ccccc1)NC(=O)[C@H](CC(=O)O)NC(=O)[C@H](CC(C)C)NC(=O)Cc1ccccc1 [Compound ID No. 1068.01, phenylacetyl-Leu-Asp-Phe-Pro-NH(CH2)5 C(O)NHC18 H37] (PhAc-LDFP[Ahx]-NHOctadecyl)
VLA-4 binding inhibition compared in words (VLA-4; compared with standard 10-mer of SEQ ID NO:3): binding inhibition similar to that exhibited by the standard 10-mer compound

CC(C)C[C@H](NC(=O)/C=C/c1ccccc1)C(=O)N[C@@H](CC(=O)O)C(=O)N[C@H](C(=O)N1CCC[C@@H]1C(N)=O)C(C)C [896.41]
Relative Potency (VLA-4; [2]): 1.97

CC(C)C[C@H](NC(=O)OCc1ccccc1)C(=O)N[C@@H](CC(=O)O)C(=O)N[C@@H](Cc1ccccc1)C(=O)N1CCC[C@@H]1C(N)=O [1056.01] (Cbz-LDF[dP]-NH2)
Relative Potency (VLA-4): 34.4

NC(=O)[C@H]1CCCN1C(=O)[C@H](Cc1ccccc1)NC(=O)[C@H](CC(=O)O)NC(=O)[C@H](CS)NC(=O)Cc1ccccc1 [1042.22] (PhAc-CDF[dP]-NH2)
Relative Potency (VLA-4; [2]): 46.9

CCCCCCCC(=O)N[C@@H](CC(=O)O)C(=O)N[C@@H](Cc1ccccc1)C(=O)N1CCC[C@@H]1C(N)=O [1056.12] (Octanoyl-Asp-Phe-[dP]-NH2)
Relative Potency (VLA-4): 0

CC(C)C[C@H](NC(=O)Cc1ccccc1)C(=O)N[C@@H](CC(=O)O)C(=O)N[C@@H](Cc1ccccc1)C(=O)N1CCN(CC(N)=O)CC1 [1111.09]
Relative Potency (VLA-4; [2]): 324

CC(C)C[C@H](NC(=O)Cc1ccccc1)C(=O)N[C@@H](CC(=O)O)C(=O)N[C@@H](Cc1ccccc1)C(=O)N1CCCC1 [951.15] (PhAc-Leu-Asp-Phe-Pyrrolidide)
Relative Potency (VLA-4; [2]): 121

CC(C)C[C@H](NC(=O)[C@H]1CCCN1)C(=O)N[C@@H](CC(=O)O)C(=O)N[C@@H](Cc1ccccc1)C(=O)N1CCC[C@@H]1C(N)=O [951.11] (H-[dP]LDF[dP]-NH2)
Relative Potency (VLA-4): 2.5

CC(C)C[C@H](NC(=O)Cc1ccccc1)C(=O)NC(C(=O)O)C(=O)N[C@@H](Cc1ccccc1)C(=O)N1CCCCC1 (some centres unmarked) [1026.02]
Relative Potency (VLA-4; [2]): 0

CCCCCCCCCCCCCCCCCC(=O)OC1CCN(C(=O)[C@H](Cc2ccccc2)NC(=O)[C@H](CC(=O)O)NC(=O)[C@H](CC(C)C)NC(=O)Cc2ccccc2)CC1 [1068.05]
Relative Potency (prodrug compound) (VLA-4; relative to SEQ ID NO:3 = 1, potency before the prodrug compound is enzymatically converted to an active form): .63

CC(C)CN(CC(=O)Nc1ccccc1)C(=O)CN(CC(=O)O)C(=O)CNC(=O)C1CCCC1 [1032.01]
Relative Potency (VLA-4): .42
